Reference: publication PMC4490784, “Compensatory induction of MYC expression by sustained CDK9 inhibition via a BRD4-dependent mechanism” (eLife, 2015)

Assays:
Test in all cases: KINOMEscan binding assay
[1] = target: T1, FRK (Homo sapiens, UniProt P42685); conditions: read-out: % Retention on Solid Support
T1 construct: purchased DiscoveRx KINOMEscan
How it was run: (§1)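 Panel of >400 kinases screened by active-site competition binding, compound at 1 and 10 µM.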

[2] = target: T2, CSF1R (Homo sapiens, UniProt P07333); conditions: read-out: % Retention on Solid Support
T2 construct: purchased DiscoveRx KINOMEscan
T2 sequence (P07333 20-972): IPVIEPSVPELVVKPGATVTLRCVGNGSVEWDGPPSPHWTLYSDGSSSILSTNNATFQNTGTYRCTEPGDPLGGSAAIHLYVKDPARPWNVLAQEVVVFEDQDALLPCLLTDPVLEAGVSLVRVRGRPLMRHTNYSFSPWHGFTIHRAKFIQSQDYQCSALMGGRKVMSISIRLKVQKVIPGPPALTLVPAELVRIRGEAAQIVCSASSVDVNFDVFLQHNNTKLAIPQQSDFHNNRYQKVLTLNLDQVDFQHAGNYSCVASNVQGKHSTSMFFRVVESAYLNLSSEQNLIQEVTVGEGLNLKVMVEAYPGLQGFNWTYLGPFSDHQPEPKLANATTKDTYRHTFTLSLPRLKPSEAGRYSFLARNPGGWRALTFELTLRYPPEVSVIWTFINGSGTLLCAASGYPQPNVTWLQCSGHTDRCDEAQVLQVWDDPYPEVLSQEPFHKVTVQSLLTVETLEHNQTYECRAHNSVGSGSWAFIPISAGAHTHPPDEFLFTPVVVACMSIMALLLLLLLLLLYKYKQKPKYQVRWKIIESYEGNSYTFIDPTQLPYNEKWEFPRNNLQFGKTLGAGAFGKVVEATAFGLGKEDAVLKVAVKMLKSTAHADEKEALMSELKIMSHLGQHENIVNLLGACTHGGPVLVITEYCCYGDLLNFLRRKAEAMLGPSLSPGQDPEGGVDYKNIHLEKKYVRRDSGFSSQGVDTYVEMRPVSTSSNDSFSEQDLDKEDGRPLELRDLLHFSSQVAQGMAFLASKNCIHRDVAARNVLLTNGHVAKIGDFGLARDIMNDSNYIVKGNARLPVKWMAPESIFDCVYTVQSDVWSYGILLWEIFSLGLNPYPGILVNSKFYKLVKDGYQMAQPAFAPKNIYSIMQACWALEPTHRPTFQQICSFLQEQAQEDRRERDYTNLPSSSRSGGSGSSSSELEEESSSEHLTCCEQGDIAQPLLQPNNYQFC
How it was run: as §1

[3] = target: T3, PFTK1 (Homo sapiens, UniProt O94921)
T3 construct: purchased DiscoveRx KINOMEscan
T3 sequence (O94921 whole entry): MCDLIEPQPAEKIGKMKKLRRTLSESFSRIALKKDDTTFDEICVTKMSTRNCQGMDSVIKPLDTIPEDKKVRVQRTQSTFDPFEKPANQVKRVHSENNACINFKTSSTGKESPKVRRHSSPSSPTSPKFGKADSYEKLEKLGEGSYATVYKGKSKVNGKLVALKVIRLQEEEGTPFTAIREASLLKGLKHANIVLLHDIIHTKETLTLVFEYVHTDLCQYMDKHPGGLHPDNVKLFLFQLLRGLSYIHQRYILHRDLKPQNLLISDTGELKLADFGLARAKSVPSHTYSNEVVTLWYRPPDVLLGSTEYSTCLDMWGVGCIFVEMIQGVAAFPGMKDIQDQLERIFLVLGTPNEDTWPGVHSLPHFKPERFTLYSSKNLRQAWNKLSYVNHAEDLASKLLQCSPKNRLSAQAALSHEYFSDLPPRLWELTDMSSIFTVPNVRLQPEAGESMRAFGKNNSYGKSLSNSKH
How it was run: as §1

[4] = target: T4, MAPKAPK5 (Homo sapiens, UniProt Q8IW41); conditions: read-out: % Retention on Solid Support
T4 construct: purchased DiscoveRx KINOMEscan
T4 sequence (Q8IW41 1-473): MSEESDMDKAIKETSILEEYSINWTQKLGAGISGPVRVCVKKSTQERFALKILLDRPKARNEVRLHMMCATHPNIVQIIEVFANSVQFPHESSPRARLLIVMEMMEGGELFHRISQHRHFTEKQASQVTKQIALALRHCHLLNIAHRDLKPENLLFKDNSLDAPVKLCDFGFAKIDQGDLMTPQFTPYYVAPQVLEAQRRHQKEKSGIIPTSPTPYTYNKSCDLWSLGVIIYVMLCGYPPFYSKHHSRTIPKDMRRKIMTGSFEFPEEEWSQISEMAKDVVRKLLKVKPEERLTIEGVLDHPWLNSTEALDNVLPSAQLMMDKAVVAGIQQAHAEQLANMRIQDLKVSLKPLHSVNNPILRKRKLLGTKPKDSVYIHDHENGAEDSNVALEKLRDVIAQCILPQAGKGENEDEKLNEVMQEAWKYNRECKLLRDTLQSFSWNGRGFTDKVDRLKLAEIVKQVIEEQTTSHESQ
How it was run: as §1

[5] = target: T5, YES (Homo sapiens, UniProt P07947); conditions: read-out: % Retention on Solid Support
T5 construct: purchased DiscoveRx KINOMEscan
How it was run: as §1

[6] = target: T6, PIK3CG (Homo sapiens, UniProt P48736); conditions: read-out: % Retention on Solid Support
T6 construct: purchased DiscoveRx KINOMEscan
How it was run: as §1

[7] = target: T7, TNK1 (Homo sapiens, UniProt Q13470); conditions: read-out: % Retention on Solid Support
T7 construct: purchased DiscoveRx KINOMEscan
How it was run: as §1

[8] = target: T8, YANK3 (Homo sapiens, UniProt Q86UX6); conditions: read-out: % Retention on Solid Support
T8 construct: purchased DiscoveRx KINOMEscan
T8 sequence (Q86UX6 whole entry): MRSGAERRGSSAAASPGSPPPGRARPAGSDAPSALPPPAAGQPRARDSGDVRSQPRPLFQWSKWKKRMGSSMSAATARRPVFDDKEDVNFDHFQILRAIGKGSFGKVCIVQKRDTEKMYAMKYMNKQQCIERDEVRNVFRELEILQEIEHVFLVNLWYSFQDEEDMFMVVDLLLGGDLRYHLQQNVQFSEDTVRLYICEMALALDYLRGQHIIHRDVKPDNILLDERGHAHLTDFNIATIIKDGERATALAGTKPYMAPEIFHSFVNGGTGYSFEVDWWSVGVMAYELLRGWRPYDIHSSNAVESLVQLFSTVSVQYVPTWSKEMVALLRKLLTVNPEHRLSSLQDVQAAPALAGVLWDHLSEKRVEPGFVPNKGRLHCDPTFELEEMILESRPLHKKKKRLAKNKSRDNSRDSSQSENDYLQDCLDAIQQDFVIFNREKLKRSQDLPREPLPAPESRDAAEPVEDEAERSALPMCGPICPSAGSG
How it was run: as §1

[9] = target: T9, CAMK4 (Homo sapiens, UniProt Q16566); conditions: read-out: % Retention on Solid Support
T9 construct: purchased DiscoveRx KINOMEscan
T9 sequence (Q16566 whole entry): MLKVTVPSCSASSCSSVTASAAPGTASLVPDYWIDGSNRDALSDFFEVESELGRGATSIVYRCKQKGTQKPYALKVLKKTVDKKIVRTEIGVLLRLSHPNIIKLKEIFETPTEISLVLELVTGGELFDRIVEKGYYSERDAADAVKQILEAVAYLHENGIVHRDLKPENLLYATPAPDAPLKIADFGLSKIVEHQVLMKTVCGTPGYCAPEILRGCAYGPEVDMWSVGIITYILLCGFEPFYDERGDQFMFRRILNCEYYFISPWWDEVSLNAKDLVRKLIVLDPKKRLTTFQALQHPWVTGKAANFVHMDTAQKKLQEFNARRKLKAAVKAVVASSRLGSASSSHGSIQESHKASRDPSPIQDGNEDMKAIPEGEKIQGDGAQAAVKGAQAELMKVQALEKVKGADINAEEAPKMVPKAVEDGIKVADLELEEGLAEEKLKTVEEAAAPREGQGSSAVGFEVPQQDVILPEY
How it was run: as §1

[10] = target: T10, PAK2 (Homo sapiens, UniProt Q13177); conditions: read-out: % Retention on Solid Support
T10 construct: purchased DiscoveRx KINOMEscan
T10 sequence (Q13177 whole entry): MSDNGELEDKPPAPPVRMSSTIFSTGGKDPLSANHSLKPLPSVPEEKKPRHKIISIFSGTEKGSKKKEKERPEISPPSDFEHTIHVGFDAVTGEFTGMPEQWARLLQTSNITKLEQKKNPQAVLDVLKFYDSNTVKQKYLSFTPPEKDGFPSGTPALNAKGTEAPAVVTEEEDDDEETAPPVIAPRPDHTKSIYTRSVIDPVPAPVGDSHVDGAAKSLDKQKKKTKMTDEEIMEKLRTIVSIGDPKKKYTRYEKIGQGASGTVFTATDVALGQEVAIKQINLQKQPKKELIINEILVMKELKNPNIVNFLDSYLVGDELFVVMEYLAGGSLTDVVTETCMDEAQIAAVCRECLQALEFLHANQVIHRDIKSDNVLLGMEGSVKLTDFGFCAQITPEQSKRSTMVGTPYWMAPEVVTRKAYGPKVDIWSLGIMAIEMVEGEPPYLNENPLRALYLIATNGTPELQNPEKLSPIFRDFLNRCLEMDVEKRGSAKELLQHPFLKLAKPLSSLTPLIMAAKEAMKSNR
How it was run: as §1

[11] = target: T11, FLT3(R834Q) (Homo sapiens, UniProt P36888, R834Q); conditions: 1 µM i-CDK9; read-out: % Retention on Solid Support
T11 construct: purchased DiscoveRx KINOMEscan
How it was run: as §1

[12] = target: T12, PAK3 (Homo sapiens, UniProt O75914); conditions: read-out: % Retention on Solid Support
T12 construct: purchased DiscoveRx KINOMEscan
T12 sequence (O75914 whole entry): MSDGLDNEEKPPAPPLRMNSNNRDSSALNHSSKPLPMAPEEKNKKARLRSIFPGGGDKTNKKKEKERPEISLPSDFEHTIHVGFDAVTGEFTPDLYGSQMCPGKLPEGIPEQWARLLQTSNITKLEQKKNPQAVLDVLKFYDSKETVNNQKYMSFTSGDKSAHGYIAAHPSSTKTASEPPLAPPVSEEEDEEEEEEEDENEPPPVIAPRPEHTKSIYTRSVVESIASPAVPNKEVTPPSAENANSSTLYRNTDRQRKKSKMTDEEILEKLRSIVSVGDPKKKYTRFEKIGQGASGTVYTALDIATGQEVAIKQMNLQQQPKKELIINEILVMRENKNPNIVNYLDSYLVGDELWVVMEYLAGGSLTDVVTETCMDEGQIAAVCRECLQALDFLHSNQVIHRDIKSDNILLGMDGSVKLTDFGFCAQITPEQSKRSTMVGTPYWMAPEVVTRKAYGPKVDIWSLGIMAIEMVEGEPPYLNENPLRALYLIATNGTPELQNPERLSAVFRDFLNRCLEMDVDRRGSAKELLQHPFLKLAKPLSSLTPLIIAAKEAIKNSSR
How it was run: as §1

[13] = target: T13, CSNK1E (Homo sapiens, UniProt P49674); conditions: read-out: % Retention on Solid Support
T13 construct: purchased DiscoveRx KINOMEscan
T13 sequence (P49674 whole entry): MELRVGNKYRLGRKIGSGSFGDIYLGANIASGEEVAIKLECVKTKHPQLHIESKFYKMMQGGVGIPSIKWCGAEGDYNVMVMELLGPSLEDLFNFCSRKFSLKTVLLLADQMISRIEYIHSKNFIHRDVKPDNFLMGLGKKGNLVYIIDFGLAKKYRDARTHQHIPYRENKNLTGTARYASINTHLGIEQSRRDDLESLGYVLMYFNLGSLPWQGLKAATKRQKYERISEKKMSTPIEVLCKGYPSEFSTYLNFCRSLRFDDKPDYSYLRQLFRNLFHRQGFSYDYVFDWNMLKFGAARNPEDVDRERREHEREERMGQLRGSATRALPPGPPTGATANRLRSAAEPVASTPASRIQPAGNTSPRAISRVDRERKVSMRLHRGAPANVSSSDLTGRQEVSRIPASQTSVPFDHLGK
How it was run: as §1

[14] = target: T14, EGFR(L858R,T790M) (Homo sapiens, UniProt P00533, L858R/T790M)
T14 construct: purchased DiscoveRx KINOMEscan
How it was run: as §1

[15] = target: T15, PIK3CA (Homo sapiens, UniProt P42336); conditions: read-out: % Retention on Solid Support
T15 construct: purchased DiscoveRx KINOMEscan
T15 sequence (P42336 whole entry): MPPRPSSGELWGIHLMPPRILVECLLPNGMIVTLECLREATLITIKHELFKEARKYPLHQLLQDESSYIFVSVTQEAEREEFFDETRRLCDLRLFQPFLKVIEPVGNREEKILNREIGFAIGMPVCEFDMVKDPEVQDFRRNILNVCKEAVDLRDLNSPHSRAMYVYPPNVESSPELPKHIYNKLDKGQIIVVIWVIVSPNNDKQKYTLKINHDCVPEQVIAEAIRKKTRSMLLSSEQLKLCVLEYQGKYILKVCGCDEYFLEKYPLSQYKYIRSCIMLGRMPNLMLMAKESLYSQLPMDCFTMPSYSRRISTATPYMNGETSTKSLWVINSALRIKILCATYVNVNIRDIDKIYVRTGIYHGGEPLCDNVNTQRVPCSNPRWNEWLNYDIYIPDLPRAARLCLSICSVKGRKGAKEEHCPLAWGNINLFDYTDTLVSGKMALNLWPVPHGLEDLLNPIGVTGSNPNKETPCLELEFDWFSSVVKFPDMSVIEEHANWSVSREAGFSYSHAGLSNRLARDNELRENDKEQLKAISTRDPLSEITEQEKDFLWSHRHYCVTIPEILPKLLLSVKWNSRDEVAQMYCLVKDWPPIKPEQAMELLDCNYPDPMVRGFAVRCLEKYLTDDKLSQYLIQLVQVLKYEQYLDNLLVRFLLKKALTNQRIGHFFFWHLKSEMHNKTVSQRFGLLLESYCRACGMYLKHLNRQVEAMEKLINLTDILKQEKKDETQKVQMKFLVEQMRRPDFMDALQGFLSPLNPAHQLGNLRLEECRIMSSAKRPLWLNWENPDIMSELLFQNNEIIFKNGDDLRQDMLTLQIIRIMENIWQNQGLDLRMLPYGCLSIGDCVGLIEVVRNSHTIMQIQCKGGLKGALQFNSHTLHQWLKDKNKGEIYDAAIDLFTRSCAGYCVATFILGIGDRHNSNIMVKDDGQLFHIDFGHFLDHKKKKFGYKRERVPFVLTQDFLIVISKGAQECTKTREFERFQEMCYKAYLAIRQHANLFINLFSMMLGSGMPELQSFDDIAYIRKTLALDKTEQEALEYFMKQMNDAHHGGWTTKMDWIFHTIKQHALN
How it was run: as §1

[16] = target: T16, PCTK2 (Homo sapiens, UniProt Q00537); conditions: read-out: % Retention on Solid Support
T16 construct: purchased DiscoveRx KINOMEscan
How it was run: as §1

[17] = target: T17, RIOK3 (Homo sapiens, UniProt O14730); conditions: read-out: % Retention on Solid Support
T17 construct: purchased DiscoveRx KINOMEscan
How it was run: as §1

[18] = target: T18, PIK3CA(C420R) (Homo sapiens, UniProt P42336, C420R); conditions: read-out: % Retention on Solid Support
T18 construct: purchased DiscoveRx KINOMEscan
T18 sequence (P42336 whole entry C420R): as the sequence (P42336 whole entry) above, with C420R counted along it
How it was run: as §1

[19] = target: T19, TTK (Homo sapiens, UniProt P33981); conditions: read-out: % Retention on Solid Support
T19 construct: purchased DiscoveRx KINOMEscan
How it was run: as §1

[20] = target: T20, MET(Y1235D) (Homo sapiens, UniProt P08581, Y1235D)
T20 construct: purchased DiscoveRx KINOMEscan
How it was run: as §1

[21] = target: T21, PIK3CB (Homo sapiens, UniProt P42338); conditions: read-out: % Retention on Solid Support
T21 construct: purchased DiscoveRx KINOMEscan
How it was run: as §1

Compound N[C@H]1CC[C@H](Nc2cc(-c3cccc(NCc4cccc(F)c4)n3)c(Cl)cn2)CC1 [i-CDK9, N2′-(trans-4-aminocyclohexyl)-5′-chloro-N6-(3-fluorobenzyl)-2,4′-bipyridine-2′,6-diamine] has a remaining binding at 1 µM ([1]; 1 µM i-CDK9) of 72%, a remaining binding at 10 µM ([1]; 10 µM i-CDK9) of 100% and a remaining binding at 1 µM ([2]; 1 µM i-CDK9) of 59%. For the same compound, the remaining binding at 10 µM ([2]; 10 µM i-CDK9) was 100%, the “% Retention on Solid Support” value ([3]; 1 µM i-CDK9) was 76% and the “% Retention on Solid Support” value ([3]; 10 µM i-CDK9) was 5.4%. It also gave a remaining binding at 1 µM ([4]; 1 µM i-CDK9) of 100%, a remaining binding at 10 µM ([4]; 10 µM i-CDK9) of 94% and a remaining binding at 1 µM ([5]; 1 µM i-CDK9) of 84%. It also gave a remaining binding at 10 µM ([5]; 10 µM i-CDK9) of 90%, a remaining binding at 1 µM ([6]; 1 µM i-CDK9) of 100% and a remaining binding at 10 µM ([6]; 10 µM i-CDK9) of 100%. For the same compound, the remaining binding at 1 µM ([7]; 1 µM i-CDK9) was 100%, the remaining binding at 10 µM ([7]; 10 µM i-CDK9) was 65% and the remaining binding at 1 µM ([8]; 1 µM i-CDK9) was 89%. For the same compound, the remaining binding at 10 µM ([8]; 10 µM i-CDK9) was 50%, the remaining binding at 1 µM ([9]; 1 µM i-CDK9) was 78% and the remaining binding at 10 µM ([9]; 10 µM i-CDK9) was 100%. The remaining binding at 1 µM ([10]; 1 µM i-CDK9) was 98%, the remaining binding at 10 µM ([10]; 10 µM i-CDK9) was 91% and the remaining binding at 1 µM [11] was 36%. The remaining binding at 1 µM ([12]; 1 µM i-CDK9) was 100%, the remaining binding at 10 µM ([12]; 10 µM i-CDK9) was 98% and the remaining binding at 1 µM ([13]; 1 µM i-CDK9) was 100%. The remaining binding at 10 µM ([13]; 10 µM i-CDK9) was 45%, the “% Retention on Solid Support” value ([14]; 1 µM i-CDK9) was 100% and the “% Retention on Solid Support” value ([14]; 10 µM i-CDK9) was 89%. It also gave a remaining binding at 1 µM ([15]; 1 µM i-CDK9) of 100%, a remaining binding at 10 µM ([15]; 10 µM i-CDK9) of 100% and a remaining binding at 1 µM ([16]; 1 µM i-CDK9) of 14%. It also gave a remaining binding at 10 µM ([16]; 10 µM i-CDK9) of 0.05%, a remaining binding at 1 µM ([17]; 1 µM i-CDK9) of 86% and a remaining binding at 10 µM ([17]; 10 µM i-CDK9) of 73%. It also gave a remaining binding at 1 µM ([18]; 1 µM i-CDK9) of 100%, a remaining binding at 10 µM ([18]; 10 µM i-CDK9) of 100% and a remaining binding at 1 µM ([19]; 1 µM i-CDK9) of 100%. The remaining binding at 10 µM ([19]; 10 µM i-CDK9) was 100%, the “% Retention on Solid Support” value ([20]; 1 µM i-CDK9) was 100% and the “% Retention on Solid Support” value ([20]; 10 µM i-CDK9) was 11%. For the same compound, the remaining binding at 1 µM ([21]; 1 µM i-CDK9) was 68% and the remaining binding at 10 µM ([21]; 10 µM i-CDK9) was 84%.
